Assay results published in patent US7902363B2, “Diimide-based semiconductor materials and methods of preparing and using the same” (Polyera Corporation, priority 2006, dated 2011).

Legend:
[1] = Solubility of isolated product in common organic solvents (noted at work-up); assay type: physicochemical; conditions: product after cyanation
Protocol: A mixture of N,N′-bis[4-(2′,3′,4′,5′,6′-pentafluorobiphenyl)]-1,7-dibromoperylene-3,4:9,10-bis(dicarboxiamide) (0.21 g, 0.203 mmol) and CuCN (0.33 g, 3.69 mmol) in DMF (10 mL) was deaerated and placed under nitrogen. The reaction mixture was heated at 150° C. for 9 hours. After cooling to room temperature, the precipitate was collected by filtration, washed several times with MeOH, and dried overnight. The product (0.11 g, 0.12 mmol, 59.1% yield) was insoluble in common organic solvents and it was gradient-sublimed.
A mixture of N,N′-bis(4-benzoylphenyl)-1,7-dibromoperylene-3,4:9,10-bis(dicarboxiamide) (0.60 g, 0.66 mmol) and CuCN (1.07 g, 12.0 mmol) in DMF (27 mL) was deaerated and placed under nitrogen. The reaction mixture was heated at 150° C. for 6 hours. After cooling to room temperature, the precipitate was collected by filtration, washed several times with MeOH, and dried overnight. The crude solid (0.42 g) was insoluble in common organic solvents.

[2] = Solubility data in organic common solvents; assay type: physicochemical; conditions: comparison in words
Description: Solubility data were obtained for compounds of the present teachings in various organic common solvents (Table 3). N,N′-bis(4-n-octyl)-1,7-dicyanoperylene-3,4:9,10-bis(dicarboxiamide) (PDI8-CN2) was included as a comparative compound.

Row | solubility in common organic solvents [1] | solubility compared to PDI8-CN2 and the other compounds of Table 3 [2] | Compound
1 | insoluble | – | N#Cc1cc2c3c(ccc4c5c(C#N)cc6c7c(ccc(c1c34)c75)C(=O)N(c1ccc(C(=O)c3ccccc3)cc1)C6=O)C(=O)N(c1ccc(C(=O)c3ccccc3)cc1)C2=O [PDIPhCOPh-CN2, N,N′-bis(4-n-benzoylphenyl)-1,7-dicyanoperylene-3,4:9,10-bis(dicarboxiamide)]
2 | – | unexpected increase in solubility | CC(C)=CCC[C@H](C)CCN1C(=O)c2ccc3c4c(C#N)cc5c6c(ccc(c7c(C#N)cc(c2c37)C1=O)c64)C(=O)N(CC[C@@H](C)CCC=C(C)C)C5=O [PDICitr-CN2, N,N′-bis[(3S)-3,7-dimethyl-6-octenyl]-1,7-dicyanoperylene-3,4:9,10-bis(dicarboxiamide)]
3 | insoluble | – | N,N′-bis[4-(2′,3′,4′,5′,6′-pentafluorobiphenyl)]-1,7-dibromoperylene-3,4:9,10-bis(dicarboxiamide) [PDIPhPh^F-CN2]
